Activity calls are given as the source filed them. The calls are words filed in the database; no cut-off is given here.

Assay [1] concerns PC-3. In words: Cytotoxicity against human PC3 cells assessed as growth inhibition at 10 uM after 48 hrs by MTT assay relative to control. The class given is functional. Background: Tetrazolium assays rely on reduction of a dye to a coloured formazan, in cell work by metabolically active cells.
Assay [2] concerns 5637. In words: Cytotoxicity against human 5637 cells assessed as growth inhibition at 10 uM after 48 hrs by MTT assay relative to control. The class given is functional, cell-based.
The test system of assay [3] is SGC-7901. Kind of assay: Antimigratory activity against human SGC7901 cells at 10 uM after 12 to 48 hrs by wound-healing assay relative to control. Type of assay: functional.
For assay [4], the system named is SGC-7901. Kind of assay: Cytotoxicity against human SGC7901 cells assessed as growth inhibition at 10 uM after 48 hrs by MTT assay relative to control. The class given is functional, cell-based.
For assay [5], the system named is PC-3. Kind of assay: Antimigratory activity against human PC3 cells at 10 uM after 12 to 48 hrs by wound-healing assay relative to control. The class given is functional.
Assay [6] has as its system 5637. Kind of assay: Antimigratory activity against human 5637 cells at 10 uM after 12 to 48 hrs by wound-healing assay relative to control. Type of assay: functional.
Assay [7] concerns 5637. Kind of assay: Antimigratory activity against human 5637 cells at 5 uM after 12 to 48 hrs by wound-healing assay relative to control. Type of assay: functional.
The test system of assay [8] is SGC-7901. Kind of assay: Antimigratory activity against human SGC7901 cells after 12 to 48 hrs by wound-healing assay. The class given is functional, cell-based.
Assay [9] has as its system 5637. Kind of assay: Cytotoxicity against human 5637 cells assessed as growth inhibition at 5 uM after 48 hrs by MTT assay relative to control. The class given is functional. The settings on record: Homo sapiens, 5637, 48 h; read-out: GI.

In general, inhibition refers to the percentage by which the read-out fell short of the control. Take `C=C1CC[C@@H]2[C@](C)(COC(=O)c3cccnc3)[C@H](OC(=O)c3cccnc3)CC[C@@]2(C)[C@@H]1/C=C/C1=CCOC1=O`: the “growth inhibition (GI)” value in the assay on PC-3 [1], with 5637 [2] and in the assay on SGC-7901 [4] was “inactive” throughout. The inhibition result with SGC-7901 [3] and with PC-3 [5] was “inactive” throughout. The compound further registered an inhibition at 10 µM with 5637 [6] of 31.7%.

A word on the IC50: it is the point on the concentration scale where inhibition reaches its midpoint. Read a high IC50 as weaker potency. In the assay on 5637 [7], `C=C1CC[C@@H]2[C@](C)(CO)[C@H](O)CC[C@@]2(C)[C@@H]1/C=C/C1=CC(=C/c2ccc(Br)cc2)/OC1=O` displayed an inhibition at 5 µM of 27.9%. This compound returned an IC50 with SGC-7901 [8] of 8.6 µM. For the same compound, in the assay on PC-3 [1] (PC-3, 48 h, read-out: GI), the inhibition of growth at 10 µM was determined as 40.2%. Moreover, the inhibition of growth at 5 µM in the assay on 5637 [9] was 33.6%. Besides, the “growth inhibition (GI)” value in the assay on SGC-7901 [4] was “inactive”. In the assay on PC-3 [5], this compound registered an inhibition at 10 µM of 83.8%.

On to `C=C1CC[C@@H]2[C@](C)(COC(=O)CCC(=O)O)[C@H](OC(=O)CCC(=O)O)CC[C@@]2(C)[C@@H]1/C=C/C1=CCOC1=O`, for which the “growth inhibition (GI)” value in the assay on PC-3 [1], with 5637 [2] and with SGC-7901 [4] was “inactive” in each case. The inhibition entry in the assay on SGC-7901 [3], with PC-3 [5] and in the assay with 5637 [6] was “inactive” in each case.

With `C=C1CC[C@@H]2[C@](C)(COC(=O)CCC(=O)O)[C@H](OC(=O)CCC(=O)O)CC[C@@]2(C)[C@@H]1/C=C/C1=CC(=C/c2ccc(Cl)cc2)/OC1=O`, the “growth inhibition (GI)” value with PC-3 [1], with 5637 [2] and in the assay on SGC-7901 [4] was “inactive” in each case. Moreover, the inhibition entry in the assay on SGC-7901 [3], with PC-3 [5] and in the assay on 5637 [6] was “inactive” throughout.

Compound `C=C1CC[C@@H]2[C@]3(C)COCO[C@@H]3CC[C@@]2(C)[C@@H]1C/C=C1/C(=O)OC[C@H]1O` registered an inhibition at 5 µM in the assay on 5637 [7] of 36.3%. The “growth inhibition (GI)” value in the assay on PC-3 [1] and in the assay with SGC-7901 [4] was “inactive” throughout. For the same compound, in the assay on 5637 [9], the inhibition of growth at 5 µM is 25.3%. Further, the inhibition entry in the assay with SGC-7901 [3] and in the assay on PC-3 [5] was “inactive” each time.

Take `C[C@]1(CO)[C@H]2CC[C@@]3(CO3)[C@@H](/C=C/C3=CCOC3=O)[C@]2(C)CC[C@H]1O`: the “growth inhibition (GI)” value with PC-3 [1], in the assay with 5637 [2] and in the assay on SGC-7901 [4] was “inactive” throughout. In addition, the inhibition result with SGC-7901 [3] and in the assay on PC-3 [5] was “inactive” each time. This compound showed an inhibition at 10 µM in the assay on 5637 [6] of 22.5%.

As for `C=C1CC[C@@H]2[C@](C)(CO)[C@H](O)CC[C@@]2(C)[C@@H]1/C=C/C1=CCOC1=O`, the “growth inhibition (GI)” value with PC-3 [1], in the assay with 5637 [2] and in the assay with SGC-7901 [4] was “inactive” in each case. The inhibition result with SGC-7901 [3] and with PC-3 [5] was “inactive” throughout. In the assay with 5637 [6], this compound displayed an inhibition at 10 µM of 44.7%.

Consider `C[C@@]12COCO[C@@H]1CC[C@]1(C)[C@@H]2CC[C@@]2(CO2)[C@H]1C/C=C1/C(=O)OC[C@H]1O`, for which the inhibition at 5 µM with 5637 [7] was 18.4%. The “growth inhibition (GI)” value in the assay on PC-3 [1] and with SGC-7901 [4] was “inactive” throughout. In addition, the inhibition of growth at 5 µM in the assay with 5637 [9] turned out to be 32.9%. In addition, the inhibition result with SGC-7901 [3] and with PC-3 [5] was “inactive” in each case.

Values taken from ChEMBL document CHEMBL2440117, “Improved inhibitory activities against tumor-cell migration and invasion by 15-benzylidene substitution derivatives of andrographolide” (Bioorg Med Chem Lett, 2013).
